Here are results for four substances from US6685932B1, “Coiled-coil dimer derived antagonists of 4-helix bundle cytokines, design and uses thereof” (Europaisches Laboratorium Molekularbiologie, priority 1997, dated 2004).

Like-named read-outs stand apart in the source and are kept apart here. Positions of bridges follow the written chain, without caps; N, C: chain ends. Chains are numbered I, II in the order given.

In data set [1] the target is T1, IL-4Rα (extracellular domain, IL4BP) (Homo sapiens, UniProt P24394, Q231C).
T1 sequence (P24394 26-232 Q231C): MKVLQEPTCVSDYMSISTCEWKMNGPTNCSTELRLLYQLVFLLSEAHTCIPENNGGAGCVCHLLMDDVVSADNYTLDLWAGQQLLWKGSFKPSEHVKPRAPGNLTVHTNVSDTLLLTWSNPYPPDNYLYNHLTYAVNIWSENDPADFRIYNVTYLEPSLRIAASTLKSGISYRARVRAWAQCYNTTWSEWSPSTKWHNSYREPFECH
Kind of data set: biosensor-based binding experiments (BIA2000 system) on immobilised IL-4 binding protein. The source says: All the peptides were synthesized by solid phase methods, aminated on the C-terminus and acetylated on the N-terminus. The activity of the peptides was investigated by biosensor-based binding experiments using the BIA2000 system (Pharmacia Biosensor), at room temperature. […] An extensive study of the role of disulfide bridges in the stability of coiled-coil structures and proteins in general is available in the literature (86-88).

Data set [2] in a line: temperature-induced denaturation followed by Circular Dichroism. The class given is physicochemical. Particulars: for stability / midpoint transition temperature (Tm), in words: CD at 222 nm. The text has this:
Upon fitting the experimental data, the midpoint transition temperature (Tm) can be obtained.
For orientation: CD spectra are sensitive to the conformation of chiral molecules.

In data set [1], “Ac-RMKQLEKKVERLLKRNYRLEWEVIRLKKLVG-NH2 [MAR-IL-4]” registered a Kd of 26 µM. Also, in data set [2], the “stability / midpoint transition temperature (Tm), in words” value is “cooperative temperature induced transition characteristic of a folded protein”. The “temperature at which the peptide starts losing its structure” value in data set [2] (low peptide concentrations used to measure binding) was found to be 25 °C. For the substance “I: Ac-RMKQLEKKVERCLKRLYRNEWEVIRLKKLVG-NH2 / II: Ac-RMKQLEKKVERCLKRLYRNEWEVIRLKKLVG-NH2 (disulfide I:12-II:12) [Model 12CNMAR-IL4]”, the “binding affinity relative to parent peptide” value in data set [1] (relative to peptide bearing cysteine at position 12) is on record as “binding affinity is not affected”. Further, the “stability / midpoint transition temperature (Tm), in words” value in data set [2] is “significant drop in the stability”. As for “I: Ac-RMKQLEKKVERCLKRNYRLEWEVIRLKKLVG-NH2 / II: Ac-RMKQLEKKVERCLKRNYRLEWEVIRLKKLVG-NH2 (disulfide I:12-II:12) [Model 12CMAR-IL4]”, the “increase in the binding affinity to IL-4Rα” value in data set [1] (relative to MAR-IL4) was determined as 5 fold. Turning to “RMKQLEDKVEELLSKNYRLENRVARLEKLVG [Model 1]”, in data set [1] (room temperature (25° C.), immobilised biotinylated IL4BP), the Kd amounted to 105597.
